MIC data for 9 compounds are collected here from ChEMBL document CHEMBL3112395, “Synthesis and structure-activity relationship studies of N-terminal analogues of the antimicrobial peptide tridecaptin A(1)” (J Med Chem, 2014).

Holding throughout (assay type): functional
One test deals with Enterococcus faecium. Nature of the test: Antibacterial activity against Enterococcus faecium ATCC 19434 assessed as growth inhibition by broth dilution method. For orientation: Broth dilution looks for growth in wells or tubes with falling amounts of substance.
A further test deals with Listeria monocytogenes. Nature of the test: Antibacterial activity against Listeria monocytogenes ATCC […] assessed as growth inhibition by broth dilution method.
The next test deals with Staphylococcus aureus. Nature of the test: Antibacterial activity against Staphylococcus aureus ATCC 29213 assessed as growth inhibition by broth dilution method.
A further test relates to Enterococcus faecalis. Nature of the test: Antibacterial activity against Enterococcus faecalis ATCC 29212 assessed as growth inhibition by broth dilution method.
The next test has as its system Acinetobacter baumannii. Nature of the test: Antibacterial activity against Acinetobacter baumannii ATCC 19606 assessed as growth inhibition by broth dilution method.
The next test deals with Klebsiella pneumoniae. Kind of test: Antibacterial activity against Klebsiella pneumoniae ATCC 13883 assessed as growth inhibition by broth dilution method.
The next test relates to Campylobacter jejuni. Kind of test: Antibacterial activity against Campylobacter jejuni NCTC 11168 assessed as growth inhibition by broth dilution method.
A further test has as its system Salmonella enterica. Nature of the test: Antibacterial activity against Salmonella enterica ATCC 13311 assessed as growth inhibition by broth dilution method.
The subject of the next test is Pseudomonas aeruginosa. Kind of test: Antibacterial activity against Pseudomonas aeruginosa ATCC 27853 assessed as growth inhibition by broth dilution method.
The next test has as its system Escherichia coli. Nature of the test: Antibacterial activity against Escherichia coli ATCC 25922 assessed as growth inhibition by broth dilution method.

Values after ≈ are worked out from the molar mass of the structure shown.

Regarding `CC[C@@H](C)CC[C@@H](O)CC(=O)N[C@@H](C(=O)N[C@H](CCN)C(=O)NCC(=O)N[C@H](CO)C(=O)N[C@H](Cc1c[nH]c2ccccc12)C(=O)N[C@@H](CO)C(=O)N[C@@H](CCN)C(=O)N[C@H](CCN)C(=O)N[C@@H](Cc1ccccc1)C(=O)N[C@@H](CCC(=O)O)C(=O)N[C@H](C(=O)N[C@@H](C(=O)N[C@@H](C)C(=O)O)[C@@H](C)CC)C(C)C)C(C)C`, the minimal inhibitory concentration (MIC) (in general, the smallest concentration in the dilution series that meets the test's criterion for growth inhibition) in the test on Enterococcus faecium is greater than 100 µg/mL; with Listeria monocytogenes it was 100 µg/mL (≈ 64.5 µM); in the test with Staphylococcus aureus, greater than 100 µg/mL; in the test on Enterococcus faecalis, greater than 100 µg/mL; with Acinetobacter baumannii, 12.5 µg/mL (≈ 8.06 µM); in the test with Klebsiella pneumoniae, 6.25 µg/mL (≈ 4.03 µM). Besides, the MIC amounted to 3.13 µg/mL (≈ 2.02 µM) with Campylobacter jejuni, 6.25 µg/mL (≈ 4.03 µM) in the test with Salmonella enterica, 50 µg/mL (≈ 32.2 µM) in the test on Pseudomonas aeruginosa and 3.13 µg/mL (≈ 2.02 µM) in the test on Escherichia coli.
On to `CC[C@H](C)CC[C@H](O)CC(=O)N[C@@H](C(=O)N[C@H](CCN)C(=O)NCC(=O)N[C@H](CO)C(=O)N[C@H](Cc1c[nH]c2ccccc12)C(=O)N[C@@H](CO)C(=O)N[C@@H](CCN)C(=O)N[C@H](CCN)C(=O)N[C@@H](Cc1ccccc1)C(=O)N[C@@H](CCC(=O)O)C(=O)N[C@H](C(=O)N[C@@H](C(=O)N[C@@H](C)C(=O)O)[C@@H](C)CC)C(C)C)C(C)C`, for which the MIC in the test with Enterococcus faecium was greater than 100 µg/mL; in the test on Listeria monocytogenes, 100 µg/mL (≈ 64.5 µM); in the test on Staphylococcus aureus, greater than 100 µg/mL; with Enterococcus faecalis it was greater than 100 µg/mL; with Acinetobacter baumannii, 25 µg/mL (≈ 16.1 µM); with Klebsiella pneumoniae it was 6.25 µg/mL (≈ 4.03 µM). Moreover, the MIC with Campylobacter jejuni stood at 1.56 µg/mL (≈ 1.01 µM); in the test with Salmonella enterica it was 6.25 µg/mL (≈ 4.03 µM); in the test on Pseudomonas aeruginosa, 50 µg/mL (≈ 32.2 µM); with Escherichia coli it was 6.25 µg/mL (≈ 4.03 µM).
On to `CCCCCCCCCCCCCC(=O)N[C@@H](C(=O)N[C@H](CCN)C(=O)NCC(=O)N[C@H](CO)C(=O)N[C@H](Cc1c[nH]c2ccccc12)C(=O)N[C@@H](CO)C(=O)N[C@@H](CCN)C(=O)N[C@H](CCN)C(=O)N[C@@H](Cc1ccccc1)C(=O)N[C@@H](CCC(=O)O)C(=O)N[C@H](C(=O)N[C@@H](C(=O)N[C@@H](C)C(=O)O)[C@@H](C)CC)C(C)C)C(C)C`, for which the MIC in the test with Enterococcus faecium, in the test on Listeria monocytogenes, in the test with Staphylococcus aureus, in the test with Enterococcus faecalis, with Acinetobacter baumannii and in the test with Klebsiella pneumoniae was greater than 100 µg/mL in each case. Besides, the MIC was 12.5 µg/mL (≈ 7.79 µM) with Campylobacter jejuni, greater than 100 µg/mL in the test on Salmonella enterica, greater than 100 µg/mL with Pseudomonas aeruginosa and greater than 100 µg/mL in the test with Escherichia coli.
Turning to `CC[C@H](C)[C@@H](NC(=O)[C@@H](NC(=O)[C@H](CCC(=O)O)NC(=O)[C@H](Cc1ccccc1)NC(=O)[C@@H](CCN)NC(=O)[C@H](CCN)NC(=O)[C@H](CO)NC(=O)[C@@H](Cc1c[nH]c2ccccc12)NC(=O)[C@@H](CO)NC(=O)CNC(=O)[C@@H](CCN)NC(=O)[C@H](NC(=O)CC12CC3CC(CC(C3)C1)C2)C(C)C)C(C)C)C(=O)N[C@@H](C)C(=O)O`, the MIC turned out to be 50 µg/mL (≈ 31.8 µM) in the test with Enterococcus faecium; 25 µg/mL (≈ 15.9 µM) in the test on Listeria monocytogenes; 50 µg/mL (≈ 31.8 µM) in the test with Staphylococcus aureus; 50 µg/mL (≈ 31.8 µM) with Enterococcus faecalis; 12.5 µg/mL (≈ 7.96 µM) with Acinetobacter baumannii; 12.5 µg/mL (≈ 7.96 µM) in the test on Klebsiella pneumoniae. Moreover, the MIC with Campylobacter jejuni worked out at 1.56 µg/mL (≈ 0.993 µM); in the test on Salmonella enterica, 6.25 µg/mL (≈ 3.98 µM); in the test with Pseudomonas aeruginosa it was 50 µg/mL (≈ 31.8 µM); with Escherichia coli, 6.25 µg/mL (≈ 3.98 µM).
Take `CC[C@H](C)[C@@H](NC(=O)[C@@H](NC(=O)[C@H](CCC(=O)O)NC(=O)[C@H](Cc1ccccc1)NC(=O)[C@@H](CCN)NC(=O)[C@H](CCN)NC(=O)[C@H](CO)NC(=O)[C@@H](Cc1c[nH]c2ccccc12)NC(=O)[C@@H](CO)NC(=O)CNC(=O)[C@@H](CCN)NC(=O)[C@H](NC(=O)CCC1c2ccccc2-c2ccccc21)C(C)C)C(C)C)C(=O)N[C@@H](C)C(=O)O`: the MIC is greater than 100 µg/mL in the test with Enterococcus faecium; 100 µg/mL (≈ 61.9 µM) in the test with Listeria monocytogenes; greater than 100 µg/mL with Staphylococcus aureus; greater than 100 µg/mL in the test with Enterococcus faecalis; greater than 100 µg/mL with Acinetobacter baumannii; 100 µg/mL (≈ 61.9 µM) in the test on Klebsiella pneumoniae. In addition, the minimal inhibitory concentration (MIC) was 1.56 µg/mL (≈ 0.966 µM) in the test on Campylobacter jejuni, greater than 100 µg/mL with Salmonella enterica, greater than 100 µg/mL in the test on Pseudomonas aeruginosa and 6.25 µg/mL (≈ 3.87 µM) in the test with Escherichia coli.
`CCCCCCCCCCC(=O)N[C@@H](C(=O)N[C@H](CCN)C(=O)NCC(=O)N[C@H](CO)C(=O)N[C@H](Cc1c[nH]c2ccccc12)C(=O)N[C@@H](CO)C(=O)N[C@@H](CCN)C(=O)N[C@H](CCN)C(=O)N[C@@H](Cc1ccccc1)C(=O)N[C@@H](CCC(=O)O)C(=O)N[C@H](C(=O)N[C@@H](C(=O)N[C@@H](C)C(=O)O)[C@@H](C)CC)C(C)C)C(C)C`: the minimal inhibitory concentration (MIC) was 100 µg/mL (≈ 64 µM) in the test with Enterococcus faecium; 25 µg/mL (≈ 16 µM) with Listeria monocytogenes; greater than 100 µg/mL in the test with Staphylococcus aureus; greater than 100 µg/mL in the test with Enterococcus faecalis; 12.5 µg/mL (≈ 8 µM) in the test with Acinetobacter baumannii; 6.25 µg/mL (≈ 4 µM) in the test on Klebsiella pneumoniae. For the same compound, the MIC in the test on Campylobacter jejuni is 0.4 µg/mL (≈ 0.256 µM); in the test with Salmonella enterica, 12.5 µg/mL (≈ 8 µM); in the test on Pseudomonas aeruginosa, greater than 100 µg/mL; in the test with Escherichia coli, 6.25 µg/mL (≈ 4 µM).
For `CCCCCCC(=O)N[C@@H](C(=O)N[C@H](CCN)C(=O)NCC(=O)N[C@H](CO)C(=O)N[C@H](Cc1c[nH]c2ccccc12)C(=O)N[C@@H](CO)C(=O)N[C@@H](CCN)C(=O)N[C@H](CCN)C(=O)N[C@@H](Cc1ccccc1)C(=O)N[C@@H](CCC(=O)O)C(=O)N[C@H](C(=O)N[C@@H](C(=O)N[C@@H](C)C(=O)O)[C@@H](C)CC)C(C)C)C(C)C`, the MIC was greater than 100 µg/mL in the test with Enterococcus faecium; 50 µg/mL (≈ 33.2 µM) in the test on Listeria monocytogenes; greater than 100 µg/mL in the test with Staphylococcus aureus; greater than 100 µg/mL with Enterococcus faecalis; 12.5 µg/mL (≈ 8.3 µM) with Acinetobacter baumannii; 6.25 µg/mL (≈ 4.15 µM) with Klebsiella pneumoniae. Besides, the MIC is 1.56 µg/mL (≈ 1.04 µM) in the test on Campylobacter jejuni, 12.5 µg/mL (≈ 8.3 µM) with Salmonella enterica, 50 µg/mL (≈ 33.2 µM) in the test on Pseudomonas aeruginosa and 6.25 µg/mL (≈ 4.15 µM) with Escherichia coli.
`CC[C@H](C)[C@@H](NC(=O)[C@@H](NC(=O)[C@H](CCC(=O)O)NC(=O)[C@H](Cc1ccccc1)NC(=O)[C@@H](CCN)NC(=O)[C@H](CCN)NC(=O)[C@H](CO)NC(=O)[C@@H](Cc1c[nH]c2ccccc12)NC(=O)[C@@H](CO)NC(=O)CNC(=O)[C@@H](CCN)NC(=O)[C@H](NC(=O)CCCC[C@@H]1SC[C@@H]2NC(=O)N[C@@H]21)C(C)C)C(C)C)C(=O)N[C@@H](C)C(=O)O`: the MIC in the test on Enterococcus faecium was greater than 100 µg/mL; in the test on Listeria monocytogenes, greater than 100 µg/mL; with Staphylococcus aureus, greater than 100 µg/mL; in the test with Enterococcus faecalis, greater than 100 µg/mL; in the test with Acinetobacter baumannii, greater than 100 µg/mL; in the test with Klebsiella pneumoniae, 50 µg/mL (≈ 30.8 µM). Also, the MIC in the test with Campylobacter jejuni was 50 µg/mL (≈ 30.8 µM); in the test on Salmonella enterica, 50 µg/mL (≈ 30.8 µM); in the test on Pseudomonas aeruginosa, greater than 100 µg/mL; in the test on Escherichia coli, 50 µg/mL (≈ 30.8 µM).
As for `CCCCCCCCCCCCCCCC(=O)N[C@@H](C(=O)N[C@H](CCN)C(=O)NCC(=O)N[C@H](CO)C(=O)N[C@H](Cc1c[nH]c2ccccc12)C(=O)N[C@@H](CO)C(=O)N[C@@H](CCN)C(=O)N[C@H](CCN)C(=O)N[C@@H](Cc1ccccc1)C(=O)N[C@@H](CCC(=O)O)C(=O)N[C@H](C(=O)N[C@@H](C(=O)N[C@@H](C)C(=O)O)[C@@H](C)CC)C(C)C)C(C)C`, the MIC with Enterococcus faecium, in the test with Listeria monocytogenes, with Staphylococcus aureus, in the test with Enterococcus faecalis, with Acinetobacter baumannii and in the test on Klebsiella pneumoniae was greater than 100 µg/mL each time. Besides, the MIC was 50 µg/mL (≈ 30.6 µM) with Campylobacter jejuni, greater than 100 µg/mL in the test with Salmonella enterica, greater than 100 µg/mL in the test with Pseudomonas aeruginosa and greater than 100 µg/mL in the test on Escherichia coli.
